Patent US9464064B2, “HCV helicase inhibitors and methods of use thereof” (University of Kansas, priority 2011, dated 2016)

Target: T1, HCV NS3 helicase NS3h_1b(con1) (Hepatitis C virus genotype 1b, UniProt Q9WMX2)
T1 construct: truncated C-terminally His-tagged NS3 proteins lacking the N-terminal protease, called NS3h; His-tag (C); made in house
Assay: MBHA screen of NCI mechanistic set library at 20 μM (percent inhibition, compound interference)
Format: biochemical
Conditions: compounds at 20 μM; for Inh. (%) (Inhibition): calculated from Equation 1
Outline: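 Molecular beacon-based DNA unwinding assay; compounds screened at 20 μM in triplicate, with DMSO-only negative and 500 nM dT20 positive controls. Fluorescence (ex 643/em 670 nm) was read before and 30 min after adding ATP to 1 mM. Percent inhibition came from the change relative to DMSO controls; interference from pre-ATP fluorescence versus DMSO controls.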

[1] = assay interference calculated with Equation 2 (fluorescence vs DMSO-only controls before ATP)
[2] = MBHA with DNA substrate, assay interference calculated with Equation 2

T1 sequence (Q9WMX2 1192-1657): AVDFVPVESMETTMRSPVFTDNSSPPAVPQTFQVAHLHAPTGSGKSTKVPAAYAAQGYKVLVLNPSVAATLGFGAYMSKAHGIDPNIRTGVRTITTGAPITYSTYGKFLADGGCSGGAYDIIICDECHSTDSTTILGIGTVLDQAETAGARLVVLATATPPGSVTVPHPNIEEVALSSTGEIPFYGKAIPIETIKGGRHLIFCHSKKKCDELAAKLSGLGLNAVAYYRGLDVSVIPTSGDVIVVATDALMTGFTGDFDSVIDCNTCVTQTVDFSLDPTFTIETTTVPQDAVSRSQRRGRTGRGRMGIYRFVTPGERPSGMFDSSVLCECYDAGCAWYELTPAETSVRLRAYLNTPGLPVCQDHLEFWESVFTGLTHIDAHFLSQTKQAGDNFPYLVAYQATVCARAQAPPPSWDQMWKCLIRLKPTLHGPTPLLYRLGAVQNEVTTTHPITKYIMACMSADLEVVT

Structure (SMILES) | Inh. (%) (Inhibition) (MBHA with a DNA substrate) | Int.* (Ratio) (Interference) [1] | Int.* (Ratio) (Interference) [2] | Inh. (%) (Inhibition) (MBHA with DNA substrate)
Nc1ncnc2c1nnn2[C@@H]1O[C@H](CO)[C@@H](O)[C@H]1O [Compound 72961] | 8.5 | 0.98 | – | –
CC(=O)C1=C(O)C2(O)C(=O)c3c(c(C)c4ccc(C)c(O)c4c3O)CC2C(N)C1=O.CCCCCCCCCCCCOS(=O)(=O)O (stereo not shown) [Compound 73495] | −5.1 | 1.01 | – | –
Cl.NC(N)=N/N=C(\c1ccc(Cl)cc1)C1CC1 [Compound 74420] | −6.1 | 1.10 | – | –
O=C(Nc1ccc(Sc2ccc(N=Nc3c(O)c(S(=O)(=O)O)cc4cc(S(=O)(=O)O)ccc34)cc2)cc1)c1ccc(N=Nc2c(O)ccc3c(S(=O)(=O)O)cc(S(=O)(=O)O)cc23)cc1 [Compound 76027] | −5.5 | 0.85 | – | –
CC1=Nc2ccccc2/C1=C\c1c(C)[nH]c2ccccc12 [Compound 76747] | – | – | 1.14 | −1.2
C[C@]12C=CC(=O)C=C1[C@@H](F)C[C@H]1[C@@H]3CC[C@](O)(C(=O)CO)[C@@]3(C)C[C@H](O)[C@@]12F [Compound 77021] | 9.8 | 1.00 | – | –
CCCCOc1ccc(NC(N)=Nc2ccc(Cl)cc2)cc1 [Compound 78365] | – | – | 0.98 | 4.7
Cc1ccc([N+](=O)[O-])cc1NC(=O)c1cccc([N+](=O)[O-])c1O [Compound 79451] | – | – | 0.98 | −11.9
Cc1ccc(NC(=O)c2cccc([N+](=O)[O-])c2O)c(C)c1 [Compound 79456] | – | – | 0.97 | −14.5
Cc1cc(N(CCCl)CCCl)ccc1/C=N/NC(=O)Cc1cc(=O)oc2cc(O)ccc12 [Compound 79688] | 7.5 | 0.97 | – | –
CN(C)c1ccc(/C=C2/C=Cc3ccccc32)cc1 [Compound 80087] | −7.0 | 1.17 | – | –
O=C(CC(=O)C(F)(F)F)c1csc2ccccc12 [Compound 80396] | – | – | 1.12 | −10.6
COc1cc(OC)c(OC)cc1/C=C/c1ccnc2ccccc12 [Compound 80756] | – | – | 0.97 | 1.2
Cc1ccc(NC(=O)c2cccc([N+](=O)[O-])c2O)c([N+](=O)[O-])c1 [Compound 82025] | 10.4 | 0.94 | – | –
CCOC(C)C(C=NNC(N)=S)=NNC(N)=S (stereo not shown) [Compound 82116] | −6.7 | 1.10 | – | –
N[C@@H](CSC(c1ccccc1)(c1ccccc1)c1ccccc1)C(=O)O [Compound 83265] | −22.5 | 0.98 | – | –
BrCCC[P+](c1ccccc1)(c1ccccc1)c1ccccc1.[Br-] [Compound 84074] | −31.4 | 1.11 | – | –
C=C1C(=O)O[C@@H]2C[C@@H](C)[C@@H]3C=CC(=O)[C@@]3(C)[C@@H](O)[C@H]12 [Compound 85236] | – | – | 1.20 | 0.4

Structure (SMILES) | Inh. (%) (Inhibition) (MBHA with a DNA substrate) | Int.* (Ratio) (Interference) [1] | Int.* (Ratio) (Interference) [2] | Inh. (%) (Inhibition) (MBHA with DNA substrate)
O=[N+]([O-])c1cccc2c(N=Nc3ccc4ccccc4c3O)c(O)cc(S(=O)(=O)[O-])c12.[Na+] [Compound 85561] | – | – | 0.90 | 68.8
Cc1ccc2c(ccc(C=Cc3ccc(O)c4ncccc34)[n+]2C)c1 [Compound 85700] | – | – | 0.46 | 29.7
CN(N=O)C(=O)N[C@@H]1[C@@H](O)[C@H](O)[C@@H](CO)O[C@@H]1O [Compound 85998] | – | – | 1.10 | −19.0
Cc1c2c(cc3c1[nH]c1ccccc13)C=NCC2 [Compound 86100] | – | – | 1.00 | 18.6
Cc1c2ccncc2cc2c1[nH]c1ccccc12 [Compound 87206] | – | – | 0.92 | 55.6
O=c1cccccc1O [Compound 89303] | – | – | 0.93 | 15.8
C[C@H]1CCC/C=C/[C@@H]2C[C@H](O)C[C@H]2[C@H](O)/C=C/C(=O)O1 [Compound 89671] | −5.9 | 1.04 | – | –
C=C(C)[C@@H]1CC[C@]2(C)CC[C@]3(C)[C@H](CC[C@@H]4[C@@]5(C)CC[C@H](O)C(C)(C)[C@@H]5CC[C@]43C)[C@@H]12 [Compound 90487] | – | – | 1.18 | −13.2
CC(C)(C)C1CCC2(CC1)CCN(CCCN1CCOCC1)CC2 [Compound 90829] | −5.9 | 1.16 | – | –
CC1(C)O[C@@H]2C[C@H]3[C@@H]4C[C@H](F)C5=CC(=O)C=C[C@]5(C)[C@@]4(F)[C@@H](O)C[C@]3(C)[C@]2(C(=O)CO)O1 [Compound 92339] | – | – | 1.04 | −1.6
CCCCCCCCCc1c(Cl)nc(Cl)nc1Cl [Compound 92510] | – | – | 1.00 | −14.2
COc1cc(O)c2c(c1)C(=O)c1cc3c(c(O)c1C2=O)C(OC1OC(C)C(O)C(O)C1OC)C(OC)C(C)(O)C3=O (stereo not shown) [Compound 93419] | – | – | 0.91 | 38.9
CC1=CC(=C(c2ccc(N)cc2)c2ccc(N)cc2)C=CC1=N.Cl [Compound 93739] | – | – | 0.81 | −13.3
CC(=O)NCCCCCCNC(C)=O [Compound 95580] | −3.8 | 0.93 | – | –
NC(=S)NN=Cc1ncccc1O [Compound 95678] | – | – | 0.98 | −9.0
COC1(O)C(=O)c2ccccc2OC1(OC)c1ccccc1 (stereo not shown) [Compound 95848] | 7.7 | 0.90 | – | –
CCN1/C(=C\C(C)=C\c2sc3ccccc3[n+]2CC)Sc2ccccc21.[I-] [Compound 96932] | – | – | 0.59 | 38.8
